“And” between values parts separate entries of the source, which are not always exact repeats. Equal entries are not always repeated. “Also recorded” adds a separate entry of the source. Where a SMILES comes first, the peptide text is derived from it. Bridges are numbered along the chain shown (N, C = ends). The star is where a group is joined. Cy5(nonsulfonated) = CN1C(=CC=CC=CC2=[N+](CCCCCC(=O)*)c3ccccc3C2(C)C)C(C)(C)c2ccccc21
Key:
ADAMTS4 [1] = molecular target: T1, ADAMTS4 (Homo sapiens, UniProt O75173); assay: MST instrument, ligand-dependent fluorescence change, Cy5-labeled peptides vs ADAMTS4 (incl. alanine scan); format: binding; settings: for binding to ADAMTS4 (ligand-dependent fluorescence change), in words: Cy5-labeled peptide 3 nM, 25 °C, n = 3
T1 construct: This is consistent with the recombinant proteins, we used in the screening process; purchased BioTeZ Berlin-Buch GmbH 30 400 102
T1 sequence (O75173 213-685): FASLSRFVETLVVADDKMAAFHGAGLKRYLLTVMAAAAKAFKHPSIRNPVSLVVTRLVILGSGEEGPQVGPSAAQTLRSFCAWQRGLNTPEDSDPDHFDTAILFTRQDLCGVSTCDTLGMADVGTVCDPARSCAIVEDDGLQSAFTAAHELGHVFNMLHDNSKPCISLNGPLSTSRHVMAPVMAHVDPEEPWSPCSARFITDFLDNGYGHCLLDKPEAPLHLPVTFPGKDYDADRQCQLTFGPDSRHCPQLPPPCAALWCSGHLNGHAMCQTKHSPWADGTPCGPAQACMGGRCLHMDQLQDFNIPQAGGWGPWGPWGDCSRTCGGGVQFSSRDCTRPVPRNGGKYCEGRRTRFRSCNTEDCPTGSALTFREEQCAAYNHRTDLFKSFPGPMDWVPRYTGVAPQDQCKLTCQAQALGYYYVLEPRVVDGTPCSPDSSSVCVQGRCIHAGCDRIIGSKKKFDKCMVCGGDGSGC
Experimental: Microscale thermophoresis (MST) was performed on a Monolith Pico (NanoTemper, Munich, Germany). The Cy5-labeled peptides were diluted into the MST buffer (150 mM NaCl, 50 mM TRIS-HCl, 5 mM CaCl2, and Tween-20) to reach a dilution of 6 nM. ADAMTS4, ADAMTS5, and ADAMTS1 were directly used with the supplied concentration. For ADAMTS4, the starting concentration was 4.96 µM, while for ADAMTS1 it was 4.88 µM and for ADAMTS5 it was 2.46 µM. […] 20 µl of the protein solutions were transferred into a PCR tube. 10 µl of this first vial was transferred into a second vial and mixed by pipetting with 10 µl of the MST buffer. The dilution series was continued 14 times. From tube 16, 10 µl were removed. Into all 16 tubes, 10 µl of the respective peptide solution were added and mixed by pipetting. The samples were incubated for 20 min and subsequently transferred to premium capillaries (NanoTemper, Munich, Germany). The capillaries were transferred into the Monolith tray and measured with 10% excitation power on the pico-red excitation on high MST power at 25 °C. Analysis was performed with MO.Affinity Analysis v3.0.1 (NanoTemper, Munich, Germany) and Origin 2022 (OriginLab Corporation, Northampton, MA). […] We checked for ADAMTS4 and the ADAMTS4-specific-Cy5-labeled probe via a saturation test for specifying the ligand-dependent fluorescence change. Therefore, the three highest ligand concentrations and the three lowest ligand concentrations of the measurement were used and centrifuged for 15 min at 16060 x g at 20 °C. Of each concentration, 7 µl were picked and mixed with 7 µl of a 10 M urea solution each. The samples were heated at 95 °C for 5 min and measured in the MST. […] Each measurement was repeated three times independently and the binding constant was calculated by merging all three measurements. […] The data were normalized using MO Affinity Analysis v3.0.1 and the fraction bound [−] was shown. […] Therefore, the percentage variance of the values to the average was plotted.
All measurements were performed with 10% LED power, high MST power and at 25 °C. The ligand dependent fluorescence change was used for determining the binding. […] The concentrations of the peptide were kept constant (3 nM in the measurement), while the proteins were diluted in the same manner as for ADAMTS4. […] The Cy5-labeled peptides (3 nM in the measurement) were kept constant, while ADAMTS4 was diluted in the same manner for each peptide (n=3 biologically independent measurements for each peptide; the data are presented as mean values ± SD). […] MST: microscale thermophoresis; nM: nanomolar; His: L-histidine; LED: light-emitting diode; n/a: not available; KD: binding constant.

ADAMTS4 [2] = molecular target: T1, ADAMTS4; assay: MST trace (MST points at 2.5 seconds) of peptides without fluorescence change; format: binding; settings: high MST power
Experimental: Microscale thermophoresis (MST) was performed on a Monolith Pico (NanoTemper, Munich, Germany). The Cy5-labeled peptides were diluted into the MST buffer (150 mM NaCl, 50 mM TRIS-HCl, 5 mM CaCl2, and Tween-20) to reach a dilution of 6 nM. ADAMTS4, ADAMTS5, and ADAMTS1 were directly used with the supplied concentration. For ADAMTS4, the starting concentration was 4.96 µM, while for ADAMTS1 it was 4.88 µM and for ADAMTS5 it was 2.46 µM. Since we saw a loss of binding after centrifugation, the use of protein concentrators were inappropriate. 20 µl of the protein solutions were transferred into a PCR tube. 10 µl of this first vial was transferred into a second vial and mixed by pipetting with 10 µl of the MST buffer. […] The capillaries were transferred into the Monolith tray and measured with 10% excitation power on the pico-red excitation on high MST power at 25 °C. […] We detected a ligand-dependent fluorescence change for some of the systems. We checked for ADAMTS4 and the ADAMTS4-specific-Cy5-labeled probe via a saturation test for specifying the ligand-dependent fluorescence change. […] The samples were heated at 95 °C for 5 min and measured in the MST. The fluorescence difference between the concentrations was afterward at the same level. Each measurement was repeated three times independently and the binding constant was calculated by merging all three measurements. […]

[3] = molecular target: T2, ADAMTS4 in the aortic wall of ApoE−/− mice (Mus musculus, UniProt Q8BNJ2); assay: In vivo MRI with negative control probe and ADAMTS4-specific probe; settings: for CNR post administration, individual animals: d1 = negative control probe, d2 = ADAMTS4-specific probe, 0.13 mmol/kg
T2 construct: from tissue
T2 sequence (Q8BNJ2 209-833): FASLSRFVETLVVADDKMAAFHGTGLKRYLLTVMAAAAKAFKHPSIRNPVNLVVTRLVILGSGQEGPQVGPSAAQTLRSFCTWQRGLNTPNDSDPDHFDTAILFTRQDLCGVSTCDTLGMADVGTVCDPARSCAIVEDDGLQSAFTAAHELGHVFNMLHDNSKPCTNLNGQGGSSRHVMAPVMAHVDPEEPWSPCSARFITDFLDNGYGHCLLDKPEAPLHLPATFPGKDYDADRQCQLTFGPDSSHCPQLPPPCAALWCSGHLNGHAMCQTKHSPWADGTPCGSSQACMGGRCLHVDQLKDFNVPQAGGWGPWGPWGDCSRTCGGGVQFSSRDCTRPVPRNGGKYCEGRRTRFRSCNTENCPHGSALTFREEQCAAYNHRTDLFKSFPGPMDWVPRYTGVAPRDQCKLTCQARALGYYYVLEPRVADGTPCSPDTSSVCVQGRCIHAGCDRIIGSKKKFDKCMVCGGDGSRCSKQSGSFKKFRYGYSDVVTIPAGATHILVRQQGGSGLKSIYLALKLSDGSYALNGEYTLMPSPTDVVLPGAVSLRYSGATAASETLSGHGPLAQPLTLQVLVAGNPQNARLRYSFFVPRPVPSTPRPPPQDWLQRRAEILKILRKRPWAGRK
Experimental: In vivo MR imaging was performed in 6 ApoE^−/− mice (n = 6): three mice (n = 3) received AngII through the osmotic minipumps, three mice (n = 3) received saline, serving as the control group. MR imaging was performed 4 weeks after minipump implantation. On day 1, a native MR scan was followed by the intravenous injection of the negative control peptide (0.13 mmol/kg) and a subsequent MR scan. 24 h later, mice were imaged prior to and following the intravenous administration of the ADAMTS4-specific probe (0.13 mmol/kg).
Analysis of resulting MR images was performed using OsiriX (version 7.1, OsiriX Foundation, Bernex, Switzerland). All morphometric measurements were conducted on high-resolution MRI images. In order to assess the signal intensities, regions of interest (ROIs) were measured as areas of signal enhancement, which were co-localized with areas of aneurysmal-aortic tissue. For these areas, the CNR was calculated using the following formula: CNR = (Combined vessel-wall and aneurysmal-aortic-tissue-signal − blood-signal)/standard-deviation-signal (noise). The signal of noise was defined as the standard deviation in pixel intensity from an ROI placed in the background air anterior to the aorta.

[4] = molecular target: ADAMTS4-specific peptide with the glycine exchanged for alanine (alanine scan peptide), Cy5-labeled; assay: MST; Monolith Pico; read-out is the ligand-dependent fluorescence change, not the thermophoresis; Cy5-labeled peptide constant (6 nM solution), protein in a 16-step 1:1 dilution series; 150 mM NaCl, 50 mM TRIS-HCl, 5 mM CaCl2, Tween-20; 25 °C
[5] = molecular target: ADAMTS4-specific probe, Cy5-labeled (cyclic peptide Cys*-Ser-Arg-Arg-Gly-Cys*-Ser with peptide linker); assay: as above

C[C@@H]1NC(=O)[C@H](CCCNC(=N)N)NC(=O)[C@H](CCCNC(=N)N)NC(=O)[C@H](CO)NC(=O)[C@@H](N)CSSC[C@@H](C(=O)N[C@@H](CO)C(=O)NCC(=O)NCC(=O)N[C@@H](CO)C(=O)NCC(=O)NCC(=O)N[C@@H](CCCCNC(=O)CCCCCN2C(=CC=CC=CC3=[N+](C)c4ccccc4C3(C)C)C(C)(C)c3ccccc32)C(=O)NCC(N)=O)NC1=O [ADAMTS4-specific probe-Gly] (H-CSRRACSGGSGGK(Cy5(nonsulfonated))G-NH2; disulfide 1-6; N-terminus and C-terminus assumed)
binding to ADAMTS4 (ligand-dependent fluorescence change), in words (ADAMTS4 [1]): decrease the binding; also recorded: a ligand dependent fluorescence change occurs | decrease in the binding affinity versus the parent peptide (ADAMTS4 [1]; alanine scan): around ten times

Cys*-Phe-His-Pro-Tyr-Cys*-Ser (disulfide) [negative control peptide]
binding to ADAMTS4 (ligand-dependent fluorescence change), in words (ADAMTS4 [1]): could not find binding; also recorded: no fluorescence change was detectable; also recorded: did not show any binding | binding in the MST trace (ADAMTS4 [2]): no binding occurs

Cys*-Phe-His-Pro-Tyr-Cys*-linker (DOTA-Gd) (disulfide) [negative control probe, Cys*-Phe-His-Pro-Tyr-Cys*-linker (DOTA-Gd), similar size to the ADAMTS4-specific probe]
increase in MR signal / CNR in the aortic wall, in words ([3]; 0.13 mmol/kg i.v., 4 weeks after minipump implantation, n = 6): no significant increase; also recorded: significantly lower increase | CNR post administration, individual animals ([3]; AAA (AngII) mice): 7.71 and 5.8 and 6.78 | CNR post administration, individual animals ([3]; control (c, saline) mice): 4.54 and 4.4 and 5.52

B1: ADAMTS4 (A Disintegrin And Metalloproteinase with ThromboSpondin motifs 4), recombinant human (enzyme)
chain: T1 sequence (O75173 213-685)
Kd [4]: 609 nM | Kd [5]: 51 nM

— article PMC9126943, “ADAMTS4-specific MR probe to assess aortic aneurysms in vivo using synthetic peptide libraries” (Nature Communications, 2022)
